Source: US10106834B2, “Methods of diagnosing and treating B cell acute lymphoblastic leukemia” (The General Hospital Corporation, priority 2013, dated 2018)

Tested on: integrin α4β1 (VLA-4) on WT and IkE5Δ/Δ pre-B cells
Test: Adhesion of adherent pre-B cells to fibronectin-coated plates with peptide blocking
Type: cell-based, mouse
Details: 400 μg/ml peptide
Protocol: Adhesion to Integrin Ligands and In Vitro FAK Inhibition Assay. Adhesion assay were performed in non-TC treated plates (BD). The plates were coated with 10 ug/ml fibronectin (FN), collagen (Col.) (Invitrogen) or BSA alone overnight at 4° C. After blocking the plates with 2% BSA for 1 h, equal number of cells were plated and incubated for the indicated time points. At the end of the assay, unbound and bound cells were harvested and enumerated. Percent adhesion was calculated by taking ratio of bound cells over total cells used in each assay.
For peptide mediated blocking of adhesion^55, equal number of cells were pretreated for 45 minutes with either 400 μg/ml G-R-G-D-S-P (SEQ ID NO:1) or the control peptide G-R-G-E-S (SEQ ID NO:2) (American Peptide Company) and plated on FN-coated TC dishes. Cells were enumerated for calculation of percent adhesion and percent inhibition.

Substance: G-R-G-D-S-P [RGD]
- binding of pre-B cells to fibronectin: significantly inhibited
